The compounds below were run against MAPK14 (human) (UniProt Q16539) (assay: Inhibition of MAPK14 Kinase Activity).
Sequence of MAPK14 (human) (Q16539 whole entry, looked up): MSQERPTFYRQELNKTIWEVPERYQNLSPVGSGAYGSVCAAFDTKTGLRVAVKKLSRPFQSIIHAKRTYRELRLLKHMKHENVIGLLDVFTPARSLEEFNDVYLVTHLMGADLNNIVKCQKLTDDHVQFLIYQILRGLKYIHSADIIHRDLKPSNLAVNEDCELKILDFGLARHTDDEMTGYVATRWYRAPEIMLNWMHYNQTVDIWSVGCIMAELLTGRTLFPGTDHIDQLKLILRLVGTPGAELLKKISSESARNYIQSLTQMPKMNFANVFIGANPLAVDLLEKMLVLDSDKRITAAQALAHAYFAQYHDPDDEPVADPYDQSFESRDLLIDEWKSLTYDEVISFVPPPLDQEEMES

SMILES | IC50
Nc1sc(Cl)c(N2CC(Cc3ccc(F)cc3F)CCC2=O)c1Cl (stereo not given) | ≤ 10 µM
CN(C)Cc1cc(Cl)c(N2CC(Cc3ccc(F)cc3F)CCC2=O)c(Cl)c1 (stereo not given) | ≤ 10 µM
CC(C)(C)C(=O)Nc1cc(Cl)c(N2CC(Cc3ccc(F)cc3F)CCC2=O)c(Cl)c1 (stereo not given) | ≤ 10 µM
CC(C)(C)OC(=O)N(CC(=O)O)c1cc(Cl)c(N2CC(Cc3ccc(F)cc3F)CCC2=O)c(Cl)c1 (stereo not given) | ≤ 10 µM
O=C1CCC(Cc2ccccc2F)CN1c1c(Cl)cccc1Cl (stereo not given) | ≤ 10 µM
O=C1CCC(Cc2ccc(F)cc2F)CN1C1C(Cl)CCC(CO)C1Cl (stereo not given) | ≤ 10 µM
O=C1CCC(Cc2ccccc2)CN1c1c(Cl)csc1Cl (stereo not given) | ≤ 10 µM
O=C1CCC(Cc2cc(F)cc(F)c2)CN1c1c(Cl)ccnc1Cl (stereo not given) | ≤ 10 µM
Cc1cccc(C)c1N1CC(Cc2ccccc2C(=O)O)CCC1=O (stereo not given) | ≤ 10 µM
COc1ccccc1CC1CCC(=O)N(c2c(Cl)csc2Cl)C1 (stereo not given) | ≤ 10 µM
CNc1ccc(Cl)c(N2CC(Cc3ccc(F)cc3F)CN(C)C2=O)c1Cl (stereo not given) | ≤ 10 µM
Cc1cc(CCCN(C)C)cc(C)c1N1C[C@@H](Cc2ccc(F)cc2F)C[C@@H](C)C1=O | ≤ 10 µM
O=C1CCC(Oc2ccccc2F)CN1c1c(Cl)ccnc1Cl (stereo not given) | ≤ 10 µM
Nc1cnc(Cl)c(N2CC(Sc3ccc(F)cc3F)CCC2=O)c1Cl (stereo not given) | ≤ 10 µM
Cc1cccc(C)c1N1CC(Cc2ccccc2Br)CCC1=O (stereo not given) | ≤ 10 µM
O=C1CCC(Oc2ccc(F)cc2F)CN1c1c(Cl)cc(CO)cc1Cl (stereo not given) | ≤ 10 µM
O=C1CCC(Sc2ccc(F)cc2F)CN1c1c(Cl)sc(O)c1Cl (stereo not given) | ≤ 10 µM
O=C1SCC(Cc2ccc(F)cc2F)CN1c1c(Cl)cccc1Cl (stereo not given) | ≤ 10 µM
O=C1CCC(Oc2ccc(F)cc2F)CN1c1c(Cl)cc(CO)nc1Cl (stereo not given) | ≤ 10 µM
O=C(NCc1ccccc1CC1CCC(=O)N(c2c(Cl)cccc2Cl)C1)Nc1ccccc1 (stereo not given) | ≤ 10 µM
N[C@@H](Cc1ccc(O)cc1)C(=O)Nc1cc(Cl)c(N2CC(Cc3ccc(F)cc3F)CCC2=O)c(Cl)c1 (stereo not given in full) | ≤ 10 µM
O=C1CSC(Cc2ccc(F)cc2)CN1c1c(Cl)cccc1Cl (stereo not given) | ≤ 10 µM
Cc1ccc(CC2CN(c3c(Cl)cccc3Cl)C(=O)CS2)c(C)c1 (stereo not given) | ≤ 10 µM
O=C1CCC(Cc2ccc(F)cc2F)CN1C1C(Cl)CC(O)CC1Cl (stereo not given) | ≤ 10 µM
O=C1CCC(Cc2ccc(F)cc2F)CN1c1c(Cl)ccc(O)c1Cl (stereo not given) | ≤ 10 µM

SMILES | IC50
O=C(Cc1ccccc1)Nc1ccc(Cl)c(N2CC(Cc3ccc(F)cc3F)COC2=O)c1Cl (stereo not given) | ≤ 10 µM
COc1ccccc1OC1CCC(=O)N(c2c(Cl)csc2Cl)C1 (stereo not given) | ≤ 10 µM
O=C(Cc1ccccc1)Nc1cc(Cl)c(N2CC(Cc3ccc(F)cc3F)COC2=O)c(Cl)c1 (stereo not given) | ≤ 10 µM
Cc1ccccc1OC1CCC(=O)N(c2c(Cl)ccnc2Cl)C1 (stereo not given) | ≤ 10 µM
O=C1NCC(Cc2ccc(Cl)cc2Cl)CN1c1c(Cl)cccc1Cl (stereo not given) | ≤ 10 µM
CC(=O)Nc1sc(Cl)c(N2CC(Cc3ccc(F)cc3F)CCC2=O)c1Cl (stereo not given) | ≤ 10 µM
O=C1CCC(Cc2cccc3ccccc23)CN1C1C(Cl)CCCC1Cl (stereo not given) | ≤ 10 µM
O=C(Cc1ccccc1)Nc1cc(Cl)c(N2CC(Oc3ccc(F)cc3F)CCC2=O)c(Cl)c1 (stereo not given) | ≤ 10 µM
O=C1CCC(Sc2ccc(F)cc2F)CN1c1c(Cl)csc1Cl (stereo not given) | ≤ 10 µM
CC(=O)Nc1sc(Cl)c(N2CC(Sc3ccc(F)cc3F)CCC2=O)c1Cl (stereo not given) | ≤ 10 µM
Cc1cc(C)cc(CC2CN(c3c(Cl)cccc3Cl)C(=O)CS2)c1 (stereo not given) | ≤ 10 µM
CC(C)(C)OC(=O)N[C@@H](COCc1ccccc1)C(=O)Nc1cc(Cl)c(N2CC(Cc3ccc(F)cc3F)CCC2=O)c(Cl)c1 (stereo not given in full) | ≤ 10 µM
COc1ccc(SC2CCC(=O)N(C3C(Cl)CCCC3Cl)C2)cc1 (stereo not given) | ≤ 10 µM
Nc1cc(Cl)c(N2CC(Cc3ccc(F)cc3F)OCC2=O)c(Cl)c1 (stereo not given) | ≤ 10 µM
O=C(Cc1ccccc1)Nc1cc(Cl)c(N2CC(Cc3ccc(F)cc3F)CCC2=O)c(Cl)n1 (stereo not given) | ≤ 10 µM
CN1CCN(CCNc2cc(Cl)c(N3CC(Cc4ccc(F)cc4F)CCC3=O)c(Cl)c2)CC1 (stereo not given) | ≤ 10 µM
O=C1CCC(Oc2ccc(F)cc2)CN1c1c(Cl)csc1Cl (stereo not given) | ≤ 10 µM
Cc1cc(C(=O)NCCN(C)C)cc(C)c1N1C[C@@H](Cc2ccc(F)cc2F)C[C@@H](C)C1=O | ≤ 10 µM
O=C1COC(Cc2ccc(F)cc2F)CN1c1c(Cl)cc(O)cc1Cl (stereo not given) | ≤ 10 µM
Cc1ccc(CC2CCC(=O)N(C3C(Cl)CCCC3Cl)C2)cc1 (stereo not given) | ≤ 10 µM
COc1ccccc1CC1CN(C)C(=O)N(c2c(Cl)cccc2Cl)C1 (stereo not given) | ≤ 10 µM
O=C1CCC(Cc2ccccc2Cl)CN1c1c(Cl)cccc1Cl (stereo not given) | ≤ 10 µM
Cc1cc(C)cc(CC2CCC(=O)N(c3c(Cl)csc3Cl)C2)c1 (stereo not given) | ≤ 10 µM
Cc1ccccc1CC1CSC(=O)N(c2c(Cl)cccc2Cl)C1 (stereo not given) | ≤ 10 µM

The next lines start with the values.

IC50 | SMILES
≤ 10 µM | Cc1ccccc1SC1CCC(=O)N(c2c(Cl)ccnc2Cl)C1 (stereo not given)
≤ 10 µM | O=C1CCC(Cc2ccc(F)cc2F)CN1c1c(Cl)cc(N2C(=O)CCC2=O)cc1Cl (stereo not given)
≤ 10 µM | O=C(Cc1ccccc1)Nc1ccc(Cl)c(N2CC(Cc3ccc(F)cc3F)CNC2=O)c1Cl (stereo not given)
≤ 10 µM | Cc1ccccc1CC1CN(C)C(=O)N(c2c(Cl)cccc2Cl)C1 (stereo not given)
≤ 10 µM | COc1ccccc1CC1COC(=O)N(c2c(Cl)cccc2Cl)C1 (stereo not given)
≤ 10 µM | O=C1CCC(Sc2ccc(F)cc2F)CN1c1c(Cl)cnc(CO)c1Cl (stereo not given)
≤ 10 µM | O=C1CCC(Cc2ccc(F)cc2)CN1c1c(Cl)ccnc1Cl (stereo not given)
≤ 10 µM | O=C1CCC(Oc2cc(F)cc(F)c2)CN1c1c(Cl)csc1Cl (stereo not given)
≤ 10 µM | O=C1CSC(Cc2ccc(F)cc2F)CN1c1c(Cl)cc(CO)cc1Cl (stereo not given)
≤ 10 µM | COc1ccccc1CC1CCC(=O)N(c2c(Cl)cncc2Cl)C1 (stereo not given)
≤ 10 µM | O=C(Cc1ccccc1)Nc1sc(Cl)c(N2CC(Sc3ccc(F)cc3F)CCC2=O)c1Cl (stereo not given)
≤ 10 µM | CC(C)(C)OC(=O)N(CC(N)=O)c1cc(Cl)c(N2CC(Cc3ccc(F)cc3F)CCC2=O)c(Cl)c1 (stereo not given)
≤ 10 µM | CNc1cnc(Cl)c(N2CC(Oc3ccc(F)cc3F)CCC2=O)c1Cl (stereo not given)
≤ 10 µM | O=C(NCc1ccccc1CC1CCC(=O)N(c2c(Cl)cccc2Cl)C1)NC1CCCCC1 (stereo not given)
≤ 10 µM | O=C(O)c1cc(Cl)c(N2CC(Cc3ccc(F)cc3F)CCC2=O)c(Cl)c1 (stereo not given)
≤ 10 µM | CCN(CC)CCNc1cc(Cl)c(N2CC(Cc3ccc(F)cc3F)CCC2=O)c(Cl)c1 (stereo not given)
≤ 10 µM | Nc1cc(Cl)c(N2CC(C(=NO)c3ccc(F)cc3F)CCC2=O)c(Cl)c1 (stereo not given)
≤ 10 µM | O=C1CCC(Cc2ccc(OC(F)(F)F)cc2)CN1c1c(Cl)cccc1Cl (stereo not given)
≤ 10 µM | O=C1CCC(Sc2ccc(F)cc2F)CN1c1c(Cl)cc(CO)nc1Cl (stereo not given)
≤ 10 µM | Cc1cc(C)cc(CC2CNC(=O)N(c3c(Cl)cccc3Cl)C2)c1 (stereo not given)
≤ 10 µM | Cc1cccc(C)c1N1CC(/C=C/Cc2ccccc2)(CO)CCC1=O (stereo not given)

IC50 | SMILES
≤ 10 µM | COC(c1ccc(F)cc1F)C1CCC(=O)N(c2c(Cl)cccc2Cl)C1 (stereo not given)
≤ 10 µM | Cc1cc(C)cc(SC2CCC(=O)N(c3c(Cl)ccnc3Cl)C2)c1 (stereo not given)
≤ 10 µM | O=C1CCC(Cc2ccc(F)cc2F)CN1c1c(Cl)cc(NCc2ccccc2O)cc1Cl (stereo not given)
≤ 10 µM | CN(C)CCNC(=O)c1cc(Cl)c(N2CC(Cc3ccc(F)cc3F)CCC2=O)c(Cl)c1 (stereo not given)
≤ 10 µM | O=C1CCC(Sc2ccc(F)cc2F)CN1c1c(Cl)cc(O)nc1Cl (stereo not given)
≤ 10 µM | O=C1CCC(Cc2ccc(Cl)cc2)CN1C1C(Cl)CCCC1Cl (stereo not given)
≤ 10 µM | CC(=O)Nc1cc(Cl)c(N2CC(Oc3ccc(F)cc3F)CCC2=O)c(Cl)c1 (stereo not given)
≤ 10 µM | Cc1ccc(CC2CCC(=O)N(C3C(Cl)CCCC3Cl)C2)c(C)c1 (stereo not given)
≤ 10 µM | O=C(Cc1ccccc1)NC1CC(Cl)C(N2CC(Cc3ccc(F)cc3F)CCC2=O)C(Cl)C1 (stereo not given)
≤ 10 µM | Cc1ccc(OC2CCC(=O)N(c3c(Cl)cncc3Cl)C2)cc1 (stereo not given)
≤ 10 µM | CNc1ccc(Cl)c(N2CC(Cc3ccc(F)cc3F)CSC2=O)c1Cl (stereo not given)
≤ 10 µM | O=C1CC[C@H](Cc2ccc(F)cc2F)CN1c1c(Cl)cccc1Cl
≤ 10 µM | O=C1CCC(Sc2ccc(Cl)cc2Cl)CN1C1C(Cl)CCCC1Cl (stereo not given)
≤ 10 µM | O=C1SCC(Cc2ccc(F)cc2)CN1c1c(Cl)cccc1Cl (stereo not given)
≤ 10 µM | CNc1cc(Cl)c(N2CC(Cc3ccc(F)cc3F)SCC2=O)c(Cl)c1 (stereo not given)
≤ 10 µM | CC[C@H]1C[C@@H](Cc2ccc(F)cc2F)CN(c2c(Cl)cccc2Cl)C1=O
≤ 10 µM | Cc1cccc(C)c1N1C[C@H](Cc2ccc(F)cc2F)C[C@@H](C)C1=O
≤ 10 µM | Cc1ccc(CC2CN(c3c(Cl)cccc3Cl)C(=O)CO2)c(C)c1 (stereo not given)
≤ 10 µM | CCOC(=O)CCCC(=O)Nc1cc(Cl)c(N2CC(Cc3ccc(F)cc3F)CCC2=O)c(Cl)c1 (stereo not given)
≤ 10 µM | O=C1CCC(Oc2ccc(F)cc2F)CN1c1c(Cl)cncc1Cl (stereo not given)
≤ 10 µM | COc1ccccc1OC1CCC(=O)N(c2c(Cl)cncc2Cl)C1 (stereo not given)

IC50 | SMILES
≤ 10 µM | O=C1OCC(Cc2ccc(Cl)cc2Cl)CN1c1c(Cl)cccc1Cl (stereo not given)
≤ 10 µM | O=C1CCC(Oc2ccc(F)cc2F)CN1c1c(Cl)csc1Cl (stereo not given)
≤ 10 µM | Cc1ccccc1CC1CN(c2c(Cl)cccc2Cl)C(=O)CS1 (stereo not given)
≤ 10 µM | Cc1ccccc1CC1CCC(=O)N(c2c(Cl)ccnc2Cl)C1 (stereo not given)
≤ 10 µM | N#CCCc1cc(Cl)c(N2CC(Cc3ccc(F)cc3F)CCC2=O)c(Cl)c1 (stereo not given)
≤ 10 µM | O=C(Cc1ccccc1)Nc1ccc(Cl)c(N2CC(Cc3ccc(F)cc3F)CSC2=O)c1Cl (stereo not given)
≤ 10 µM | Cc1ccccc1SC1CCC(=O)N(c2c(Cl)cncc2Cl)C1 (stereo not given)
≤ 10 µM | CNc1ccc(Cl)c(N2CC(Cc3ccc(F)cc3F)CNC2=O)c1Cl (stereo not given)
≤ 10 µM | Cc1ccccc1OC1CCC(=O)N(c2c(Cl)cncc2Cl)C1 (stereo not given)
≤ 10 µM | CC(=O)Nc1ncc(Cl)c(N2CC(Sc3ccc(F)cc3F)CCC2=O)c1Cl (stereo not given)
≤ 10 µM | CC(=O)NC1CC(Cl)C(N2CC(Sc3ccc(F)cc3F)CCC2=O)C(Cl)C1 (stereo not given)
≤ 10 µM | CNC(=O)CCc1cc(Cl)c(N2CC(Cc3ccc(F)cc3F)CCC2=O)c(Cl)c1 (stereo not given)
≤ 10 µM | O=C1CCC(Oc2ccc3ccccc3c2)CN1c1c(Cl)cncc1Cl (stereo not given)
≤ 10 µM | O=C1CCC(Nc2ccc(F)cc2F)CN1c1c(Cl)cccc1Cl (stereo not given)
≤ 10 µM | Cn1nc(C(C)(C)C)cc1NC(=O)OCc1ccccc1CC1CCC(=O)N(c2c(Cl)cccc2Cl)C1 (stereo not given)
≤ 10 µM | O=C1CCC(Cc2ccc(F)cc2F)CN1C1C(Cl)CCC(O)C1Cl (stereo not given)
≤ 10 µM | O=C1CCC(Sc2ccc3ccccc3c2)CN1C1C(Cl)CCCC1Cl (stereo not given)
≤ 10 µM | COc1ccccc1CC1CCC(=O)N(C2C(Cl)CCCC2Cl)C1 (stereo not given)
≤ 10 µM | COc1ccc(OC2CCC(=O)N(c3c(Cl)ccnc3Cl)C2)cc1 (stereo not given)
